# According to paper PMC9725750, “The clinical pharmacology of tafenoquine in the radical cure of Plasmodium vivax malaria: An individual patient data meta-analysis” (eLife, 2022):
# System: blood MetHb
# Test: Blood methaemoglobin (MetHb) concentration on day 7 by pulse CO-oximeter
# Assay type: in vivo, human
# Excerpt: All patients in the phase 1 trial and the three efficacy trials had frequent blood MetHb measurements taken using non-invasive signal extraction pulse CO-oximeter handheld machines. For the three efficacy trials, we excluded measurements taken at or after recurrence of vivax malaria. Because erroneous readings from the handheld oximeters can occur, we inspected visually the longitudinal MetHb curves for each patient. […] All patients from this site were excluded from the MetHb analysis ( n =91), resulting in a total of 9632 MetHb measurements across 746 P. vivax infected patients and 72 healthy volunteers.
compound,measurement,setting,value
COc1cc(C)c2c(Oc3cccc(C(F)(F)F)c3)c(OC)cc(NC(C)CCCN)c2n1 (stereo not drawn) [tafenoquine],increase in day 7 MetHb concentrations per additional mg/kg,95% CI 17% to 21%,19%
same,lower day 7 methaemoglobinaemia in healthy volunteers compared to patients infected with P. vivax,"adjusted for mg/kg dose, 95% CI 0 to 34%, p=0.02",15%
same,day of peak MetHb levels,after single dose tafenoquine + chloroquine,~7 days
